Experimental data as given in ChEMBL document CHEMBL1201862, “PubChem BioAssay data set” (2004).
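The compound was tested at five concentrations on cells cultured in 96-well plates, with a 48-hour exposure period. GI50: concentration for 50% inhibition of growth.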 Active and inactive are the calls of the source. Rule as the data show it: active = GI50 up to about 1.1 µM and inactive = higher.

What was measured:
Assay in all cases: NCI-60 cell line screen, 48 h
UACC-257 = tested on: UACC-257
HCC 2998 = tested on: HCC 2998
SK-OV-3 = tested on: SK-OV-3
HOP-92 = tested on: HOP-92
SN12C = tested on: SN12C
NCI-H522 = tested on: NCI-H522
K562 = tested on: K562
SNB-19 = tested on: SNB-19
CCRF-CEM = tested on: CCRF-CEM
Malme-3M = tested on: Malme-3M
U-251 = tested on: U-251
SK-MEL-28 = tested on: SK-MEL-28
RPMI-8226 = tested on: RPMI-8226
IGROV-1 = tested on: IGROV-1
NCI-H226 = tested on: NCI-H226
T47D = tested on: T47D
786-0 = tested on: 786-0
BT-549 = tested on: BT-549
LOX IMVI = tested on: LOX IMVI
SNB-75 = tested on: SNB-75

Row | SMILES | GI50 (UACC-257) | GI50 (HCC 2998) | GI50 (SK-OV-3) | GI50 (HOP-92) | GI50 (SN12C) | GI50 (NCI-H522) | GI50 (K562) | GI50 (SNB-19) | GI50 (CCRF-CEM) | GI50 (Malme-3M) | GI50 (U-251) | GI50 (SK-MEL-28) | GI50 (RPMI-8226) | GI50 (IGROV-1) | GI50 (NCI-H226) | GI50 (T47D) | GI50 (786-0) | GI50 (BT-549) | GI50 (LOX IMVI) | GI50 (SNB-75)
1 | S=C(S)NCCN1CCNCC1 | 20.7 µM (inactive) | 22.7 µM (inactive) | > 100 µM (inactive) | 75.9 µM (inactive) | 49.2 µM (inactive) | 14.7 µM (inactive) | 24.4 µM (inactive) | > 100 µM (inactive) | 21.1 µM (inactive) | 25.4 µM (inactive) | > 100 µM (inactive) | > 100 µM (inactive) | 18.6 µM (inactive) | 49.5 µM (inactive) | > 100 µM (inactive) | 10.7 µM (inactive) | 22.3 µM (inactive) | 88.1 µM (inactive) | 40.1 µM (inactive) | > 100 µM (inactive)
2 | N=C(N)NC(=N)Nc1ccc(S(N)(=O)=O)cc1 | > 100 µM (inactive) | 6.27 µM (inactive) | > 100 µM (inactive) | > 100 µM (inactive) | > 100 µM (inactive) | > 100 µM (inactive) | > 100 µM (inactive) | > 100 µM (inactive) | > 100 µM (inactive) | > 100 µM (inactive) | > 100 µM (inactive) | > 100 µM (inactive) | > 100 µM (inactive) | > 100 µM (inactive) | > 100 µM (inactive) | > 100 µM (inactive) | > 100 µM (inactive) | > 100 µM (inactive) | > 100 µM (inactive) | > 100 µM (inactive)
3 | CC1=CC(=O)/C(=C/NC(=S)NCCc2ccccc2)C(=O)O1 | > 100 µM (inactive) | > 100 µM (inactive) | > 100 µM (inactive) | > 100 µM (inactive) | > 100 µM (inactive) | – | – | > 100 µM (inactive) | – | – | > 100 µM (inactive) | > 100 µM (inactive) | – | > 100 µM (inactive) | > 100 µM (inactive) | > 100 µM (inactive) | 31 µM (inactive) | 53.7 µM (inactive) | 30.1 µM (inactive) | 75 µM (inactive)
4 | O=C(C(Cl)=C(N1CCCCC1)N1CCCCC1)C(Cl)Cl | > 100 µM (inactive) | > 100 µM (inactive) | > 100 µM (inactive) | > 100 µM (inactive) | > 100 µM (inactive) | > 100 µM (inactive) | > 100 µM (inactive) | > 100 µM (inactive) | > 100 µM (inactive) | > 100 µM (inactive) | – | > 100 µM (inactive) | > 100 µM (inactive) | > 100 µM (inactive) | > 100 µM (inactive) | > 100 µM (inactive) | > 100 µM (inactive) | > 100 µM (inactive) | > 100 µM (inactive) | –
5 | Cc1ccc(C2(c3ccc(F)cc3)OC(=O)c3ccccc32)c(O)c1 (stereo not drawn) | 15.6 µM (inactive) | 22.4 µM (inactive) | 11.9 µM (inactive) | 16.6 µM (inactive) | 14.7 µM (inactive) | 14.5 µM (inactive) | 14.2 µM (inactive) | 16.6 µM (inactive) | 18.7 µM (inactive) | > 10 µM (inactive) | 18.5 µM (inactive) | – | 16.4 µM (inactive) | 14.4 µM (inactive) | 15 µM (inactive) | 13.5 µM (inactive) | 15.4 µM (inactive) | 19.7 µM (inactive) | 13.9 µM (inactive) | 12.3 µM (inactive)
6 | CNC(=S)NN=C1NCCCCN1 | > 100 µM (inactive) | > 100 µM (inactive) | > 100 µM (inactive) | > 100 µM (inactive) | – | > 100 µM (inactive) | > 100 µM (inactive) | > 100 µM (inactive) | > 100 µM (inactive) | > 100 µM (inactive) | > 100 µM (inactive) | > 100 µM (inactive) | > 100 µM (inactive) | > 100 µM (inactive) | > 100 µM (inactive) | > 100 µM (inactive) | > 100 µM (inactive) | > 100 µM (inactive) | > 100 µM (inactive) | > 100 µM (inactive)
7 | C[C@@]1(c2ccccc2)O[C@@H]2C[C@H]3[C@@H]4CCC5=CC(=O)C=C[C@]5(C)[C@@]4(F)[C@@H](O)C[C@]3(C)[C@]2(C(=O)CO)O1 [AMCINAFIDE] | 17.6 µM (inactive) | 17.3 µM (inactive) | – | 22.3 µM (inactive) | 12.9 µM (inactive) | 11.5 µM (inactive) | 12.5 µM (inactive) | 24.7 µM (inactive) | – | 13.8 µM (inactive) | 17.7 µM (inactive) | 16.3 µM (inactive) | < 0.01 µM (active) | 17.7 µM (inactive) | 15.8 µM (inactive) | 20.2 µM (inactive) | 16.3 µM (inactive) | 18.2 µM (inactive) | 23.8 µM (inactive) | 26.9 µM (inactive)
8 | COP(=O)(OC)/C(=C/c1c[nH]c2ccccc12)C(=O)O | – | > 100 µM (inactive) | > 100 µM (inactive) | > 100 µM (inactive) | > 100 µM (inactive) | > 100 µM (inactive) | > 100 µM (inactive) | > 100 µM (inactive) | > 100 µM (inactive) | > 100 µM (inactive) | > 100 µM (inactive) | > 100 µM (inactive) | > 100 µM (inactive) | > 100 µM (inactive) | > 100 µM (inactive) | > 100 µM (inactive) | > 100 µM (inactive) | > 100 µM (inactive) | > 100 µM (inactive) | > 100 µM (inactive)
9 | CCOC(=O)c1cc(C2=C(S)N(CC(C)CC)CC2)c(C(=O)CC)[nH]1 (stereo not drawn) | 17.4 µM (inactive) | – | 23.5 µM (inactive) | 19.7 µM (inactive) | 18.7 µM (inactive) | 14.9 µM (inactive) | 10 µM (inactive) | 19.1 µM (inactive) | 4.28 µM (inactive) | 11.1 µM (inactive) | 13.1 µM (inactive) | 19.5 µM (inactive) | 5.36 µM (inactive) | 20.3 µM (inactive) | 23.5 µM (inactive) | 7.53 µM (inactive) | 16.9 µM (inactive) | 19.3 µM (inactive) | 17.4 µM (inactive) | 19.7 µM (inactive)
10 | COc1cc(/C=N/c2nc3cc4sc(/N=C/c5cc(OC)c(OC)c(OC)c5)nc4cc3s2)cc(OC)c1OC | 73.6 µM (inactive) | > 100 µM (inactive) | > 100 µM (inactive) | > 100 µM (inactive) | 43 µM (inactive) | 45.8 µM (inactive) | 50.1 µM (inactive) | > 100 µM (inactive) | – | > 100 µM (inactive) | 46.1 µM (inactive) | 21.7 µM (inactive) | 51.2 µM (inactive) | > 100 µM (inactive) | 31.4 µM (inactive) | 51.1 µM (inactive) | 49.2 µM (inactive) | > 100 µM (inactive) | 42.9 µM (inactive) | 75 µM (inactive)
11 | COc1ccc(C2=C3SC=c4ccccc4=C3ON=C2c2ccccc2)cc1 | > 100 µM (inactive) | > 100 µM (inactive) | – | 68.1 µM (inactive) | > 100 µM (inactive) | 53.8 µM (inactive) | 22.9 µM (inactive) | > 100 µM (inactive) | 84.3 µM (inactive) | > 100 µM (inactive) | > 100 µM (inactive) | > 100 µM (inactive) | 69.2 µM (inactive) | > 100 µM (inactive) | > 100 µM (inactive) | 25.4 µM (inactive) | > 100 µM (inactive) | > 100 µM (inactive) | > 100 µM (inactive) | –
12 | C[N+](C)(C)CC(=O)N/N=C(\Cc1nc2ccc([N+](=O)[O-])cc2nc1O)C(=O)Nc1nc2ccc([N+](=O)[O-])cc2s1 | > 100 µM (inactive) | 36.9 µM (inactive) | 34 µM (inactive) | 29 µM (inactive) | 89.1 µM (inactive) | 13.3 µM (inactive) | 86.3 µM (inactive) | – | 40.9 µM (inactive) | – | 56.6 µM (inactive) | > 100 µM (inactive) | 34.5 µM (inactive) | 23.5 µM (inactive) | 25.4 µM (inactive) | 21.9 µM (inactive) | 93.8 µM (inactive) | 29.3 µM (inactive) | 35.6 µM (inactive) | 21.5 µM (inactive)
13 | CC(C)NCC(O)c1ccc(O)c2ncccc12 (stereo not drawn) | 50 µM (inactive) | 46 µM (inactive) | 21.9 µM (inactive) | > 100 µM (inactive) | 30.3 µM (inactive) | 47.2 µM (inactive) | 19.5 µM (inactive) | > 100 µM (inactive) | – | – | 31.5 µM (inactive) | > 100 µM (inactive) | 49.1 µM (inactive) | 33.5 µM (inactive) | > 100 µM (inactive) | 33.8 µM (inactive) | 45.5 µM (inactive) | > 100 µM (inactive) | 30.3 µM (inactive) | > 100 µM (inactive)
14 | CC(=O)Nc1ccc(C(=O)NN2C(=O)C(Cl)C2c2ccc(Cl)cc2)cc1 (stereo not drawn) | > 100 µM (inactive) | > 100 µM (inactive) | 25.4 µM (inactive) | 26.1 µM (inactive) | 39.6 µM (inactive) | 38.8 µM (inactive) | > 100 µM (inactive) | 24.2 µM (inactive) | > 100 µM (inactive) | > 42.9 µM (inactive) | 23.9 µM (inactive) | 52.5 µM (inactive) | > 100 µM (inactive) | 37.3 µM (inactive) | > 57.4 µM (inactive) | > 100 µM (inactive) | 18.7 µM (inactive) | 72.6 µM (inactive) | – | 16.1 µM (inactive)
15 | C[C@H](CCC(=O)O)[C@H]1CC[C@H]2[C@@H]3[C@H](O)C[C@@H]4C[C@H](O)CC[C@]4(C)[C@H]3CC[C@]12C [CHENODIOL] | 41.8 µM (inactive) | 28.9 µM (inactive) | – | 30.3 µM (inactive) | 43.2 µM (inactive) | 25.5 µM (inactive) | 35.6 µM (inactive) | 43.8 µM (inactive) | 33.1 µM (inactive) | 32.2 µM (inactive) | 37.6 µM (inactive) | 42.6 µM (inactive) | 22.6 µM (inactive) | 27 µM (inactive) | 22.2 µM (inactive) | 40.2 µM (inactive) | 36.3 µM (inactive) | 36.3 µM (inactive) | 32.5 µM (inactive) | 19.6 µM (inactive)
